# From patent publication EP4342890A1, “PLATFORM AND SCAFFOLD FOR FAP TARGETING AGENTS” (Erasmus University Rotterdam Medical Center, priority 2022, dated 2024)
# Assays:
# murine FAP = target: T1, murine FAP (Mus musculus, UniProt P97321); test: In vitro inhibition assay on mouse FAP (Z-GP-AMC substrate); assay type: biochemical; conditions: enzymatic assay; 20 µM Z-GP-AMC, 20 nM FAP; unit inferred
# T1 sequence (P97321 1-761): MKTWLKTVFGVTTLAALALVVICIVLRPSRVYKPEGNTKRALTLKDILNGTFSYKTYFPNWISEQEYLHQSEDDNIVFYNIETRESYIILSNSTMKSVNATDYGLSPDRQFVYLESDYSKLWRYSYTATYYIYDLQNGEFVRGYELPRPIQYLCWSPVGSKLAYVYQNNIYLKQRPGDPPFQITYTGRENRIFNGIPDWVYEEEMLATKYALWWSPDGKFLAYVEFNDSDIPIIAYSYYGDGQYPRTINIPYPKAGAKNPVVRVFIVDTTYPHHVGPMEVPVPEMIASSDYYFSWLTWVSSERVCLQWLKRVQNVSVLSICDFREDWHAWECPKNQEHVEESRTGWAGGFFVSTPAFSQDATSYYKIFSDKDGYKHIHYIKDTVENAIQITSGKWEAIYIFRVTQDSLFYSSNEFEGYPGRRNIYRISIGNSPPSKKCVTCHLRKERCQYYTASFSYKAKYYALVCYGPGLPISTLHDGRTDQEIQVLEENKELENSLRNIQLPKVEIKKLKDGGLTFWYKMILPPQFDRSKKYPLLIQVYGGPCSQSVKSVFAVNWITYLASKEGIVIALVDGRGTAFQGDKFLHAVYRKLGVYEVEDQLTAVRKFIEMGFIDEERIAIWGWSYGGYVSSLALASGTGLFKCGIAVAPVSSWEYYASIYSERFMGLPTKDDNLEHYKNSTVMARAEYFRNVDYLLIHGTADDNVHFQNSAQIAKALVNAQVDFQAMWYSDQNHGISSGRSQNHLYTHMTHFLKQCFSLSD
# Procedure: (§1) Enzymatic activity of human FAP (hFAP) and mouse FAP (mFAP) on the Z-GP-AMC substrate was measured at room temperature on a Hidex microplate reader by monitoring the fluorescence at an excitation wavelength of 360 nm and an emission wavelength of 465 nm. The reaction mixture contained 20 µM substrate, 20 nM FAP, assay buffer (50 mM Tris, 100 mM NaCl, 1 mM EDTA, pH 7.4) and tested compound (serial dilution from 10^-6 to 10^-12) in a total volume of 50 µL.
# FAP = target: T2, FAP (Homo sapiens, UniProt Q12884); test: In vitro inhibition assay on human FAP (Z-GP-AMC substrate); assay type: biochemical; conditions: enzymatic assay; 20 µM Z-GP-AMC, 20 nM FAP; unit inferred
# T2 sequence (Q12884 1-760): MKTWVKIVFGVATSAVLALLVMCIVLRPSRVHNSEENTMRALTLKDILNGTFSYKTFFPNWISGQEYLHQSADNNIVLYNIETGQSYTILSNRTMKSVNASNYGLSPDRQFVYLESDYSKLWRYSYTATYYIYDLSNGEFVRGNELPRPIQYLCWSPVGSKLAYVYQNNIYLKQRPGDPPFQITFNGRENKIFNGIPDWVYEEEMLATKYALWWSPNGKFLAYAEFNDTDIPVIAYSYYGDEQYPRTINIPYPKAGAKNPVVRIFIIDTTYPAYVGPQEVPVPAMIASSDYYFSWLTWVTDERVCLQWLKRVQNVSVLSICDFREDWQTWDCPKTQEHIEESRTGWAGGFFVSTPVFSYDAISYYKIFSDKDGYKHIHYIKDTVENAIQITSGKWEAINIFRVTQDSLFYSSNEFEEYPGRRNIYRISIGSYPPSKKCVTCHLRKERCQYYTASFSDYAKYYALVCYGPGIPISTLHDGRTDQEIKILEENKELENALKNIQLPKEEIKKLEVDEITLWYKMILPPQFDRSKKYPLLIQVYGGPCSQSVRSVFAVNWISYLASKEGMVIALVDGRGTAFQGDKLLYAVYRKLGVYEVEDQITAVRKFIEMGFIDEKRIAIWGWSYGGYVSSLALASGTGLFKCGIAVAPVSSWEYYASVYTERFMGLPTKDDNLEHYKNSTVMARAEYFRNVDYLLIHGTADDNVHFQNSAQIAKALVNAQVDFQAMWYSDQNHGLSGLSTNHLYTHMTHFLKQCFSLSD
# Procedure: as §1
smiles,measurement,setting,value
"N#C[C@@H]1CC(F)(F)CN1C(=O)CNC(=O)c1ccnc2c(OCCCNC(=O)CN3CCN(CC(=O)O)CCN(CC(=O)O)CCN(CC(=O)O)CC3)cccc12 [eFAP-6, (S)-2,2',2""-(10-(2-((3-((4-((2-(2-Cyano-4,4-difluoropyrrolidin-1-yl)-2-oxoethyl)carbamoyl)quinolin-8-yl)oxy)propyl)amino)-2-oxoethyl)-1,4,7,10-tetraazacyclododecane-1,4,7-triyl)triacetic acid]",IC50,murine FAP,3.1 ± 2.4 nM
same,IC50,FAP,1.6 ± 0.5 nM
